Assay results taken from patent publication US12043600B2, “Microbiocidal compounds” (SYNGENTA CROP PROTECTION AG, priority 2018, dated 2024).

How the values were obtained:
[1] = test system: Monographella nivalis (Microdochium nivale); experiment: Monographella nivalis (Microdochium nivale)/Liquid Culture (Foot Rot Cereals); type: cell-based; details: liquid culture, compared to untreated control
Procedure: (§1) Conidia of the fungus from cryogenic storage are directly mixed into nutrient broth (PDB potato dextrose broth). After placing a (DMSO) solution of test compound into a microtiter plate (96-well format), the nutrient broth containing the fungal spores is added.

[2] = test system: Magnaporthe grisea (Pyricularia oryzae); experiment: whole plant or invertebrate; type: in vivo; details: foliar, read-out: control of Magnaporthe grisea
[3] = test system: Mycosphaerella arachidis (Cercospora arachidicola); experiment: Mycosphaerella arachidis (Cercospora arachidicola)/Liquid Culture (Early Leaf Spot); type: cell-based; details: liquid culture, compared to untreated control
Procedure: as §1

[4] = test system: Mycosphaerella graminicola (Septoria tritici); experiment: Mycosphaerella graminicola (Septoria tritici)/Liquid Culture (Septoria Blotch); type: cell-based; details: Zymoseptoria tritici; 20 ppm; liquid culture; compared to untreated control
Procedure: Conidia of the fungus from cryogenic storage are directly mixed into nutrient broth (PDB potato dextrose broth). After placing a (DMSO) solution of test compound into a microtiter plate (96-well format), the nutrient broth containing the fungal spores is added. […] The data are presented as the percentage of disease control of each compound for the biological tests against G. lagenarium (Example B3), P. recondita preventative (Example B13), P. teres (Example B15) and M. graminicola (Example B19) as described above. The testing rates of each biological test is specifically described in table C1 below.

[5] = test system: Puccinia recondita f. sp. tritici; experiment: Puccinia recondita f. sp. tritici/Wheat/Leaf Disc Preventative (Brown Rust); type: in vivo; details: foliar, 200 ppm, wheat leaf disc preventative, compared to untreated control, read-out: control of Puccinia recondita f. sp. tritici
[6] = test system: Phaeosphaeria nodorum (Septoria nodorum); experiment: Phaeosphaeria nodorum (Septoria nodorum)/Wheat/Leaf Disc Preventative (Glume Blotch); type: in vivo; details: Parastagonospora nodorum, foliar, wheat leaf disc preventative, compared to untreated control
Procedure: Wheat leaf segments cv. Kanzler are placed on agar in a multiwell plate (24-well format) and sprayed with the formulated test compound diluted in water. The leaf disks are inoculated with a spore suspension of the fungus 2 days after application. The inoculated test leaf disks are incubated at 20° C. and 75% rh under a light regime of 12 h light/12 h darkness in a climate cabinet and the activity of a compound is assessed as percent disease control compared to untreated when an appropriate level of disease damage appears in untreated check leaf disks (5-7 days after application).

[7] = test system: Glomerella lagenarium (Colletotrichum lagenarium); experiment: Glomerella lagenarium (Colletotrichum lagenarium)/Liquid Culture (Anthracnose); type: cell-based; details: Colletotrichum orbiculare, liquid culture, compared to untreated control
[8] = test system: Phytophthora infestans; experiment: whole plant or invertebrate; type: in vivo; details: in Solanum lycopersicum, foliar, read-out: control of Phytophthora infestans
[9] = test system: Botryotinia fuckeliana (Botrytis cinerea); experiment: Botryotinia fuckeliana (Botrytis cinerea)/Liquid Culture (Gray Mould); type: cell-based; details: liquid culture, compared to untreated control
Procedure: Conidia of the fungus from cryogenic storage are directly mixed into nutrient broth (Vogels broth). After placing a (DMSO) solution of test compound into a microtiter plate (96-well format), the nutrient broth containing the fungal spores is added.

[10] = test system: Plasmopara viticola; experiment: whole plant or invertebrate; type: in vivo; details: foliar, read-out: control of Plasmopara viticola
[11] = test system: Puccinia recondita f. sp. tritici; experiment: Puccinia recondita f. sp. tritici/Wheat/Leaf Disc Curative (Brown Rust); type: in vivo; details: foliar, wheat leaf disc curative, compared to untreated control
Procedure: Wheat leaf segments cv. Kanzler are placed on agar in multiwell plates (24-well format). The leaf segments are inoculated with a spore suspension of the fungus. Plates are stored in darkness at 19° C. and 75% rh. The formulated test compound diluted in water is applied 1 day after inoculation. The leaf segments are incubated at 19° C. and 75% rh under a light regime of 12 h light/12 h darkness in a climate cabinet and the activity of a compound is assessed as percent disease control compared to untreated when an appropriate level of disease damage appears in untreated check leaf segments (6-8 days after application).

[12] = test system: Blumeria graminis f. sp. tritici (Erysiphe graminis f. sp. tritici); experiment: Blumeria graminis f. sp. tritici/Wheat/Leaf Disc Preventative (Powdery Mildew on Wheat); type: in vivo; details: foliar, wheat leaf disc preventative, compared to untreated control
Procedure: Wheat leaf segments cv. Kanzler are placed on agar in a multiwell plate (24-well format) and sprayed with the formulated test compound diluted in water. The leaf disks are inoculated by shaking powdery mildew infected plants above the test plates 1 day after application. The inoculated leaf disks are incubated at 20° C. and 60% rh under a light regime of 24 h darkness followed by 12 h light/12 h darkness in a climate chamber and the activity of a compound is assessed as percent disease control compared to untreated when an appropriate level of disease damage appears on untreated check leaf segments (6-8 days after application).

[13] = test system: Phakopsora pachyrhizi; experiment: Phakopsora pachyrhizi/Soybean/Preventative (Soybean Rust); type: in vivo; details: foliar, 288 h, 200 ppm, soybean leaf disc preventative, compared to untreated control, read-out: control of Phakopsora pachyrhizi

Compound	inhibition of growth at 20 ppm [1] [%]	pest or weed control at 200 ppm [2] [%]	inhibition of growth at 20 ppm [3] [%]	inhibition of growth at 20 ppm [4] [%]	pest or weed control at 200 ppm [5] [%]	pest or weed control at 200 ppm [6] [%]	inhibition of growth at 20 ppm [7] [%]	pest or weed control at 200 ppm [8] [%]	inhibition of growth at 20 ppm [9] [%]	pest or weed control at 200 ppm [10] [%]	melting point [°C]	pest or weed control at 200 ppm [11] [%]	pest or weed control at 200 ppm [12] [%]	pest or weed control at 200 ppm [13] [%]
CCCc1nn(-c2ccc(C)c(O/C(=C\OC)C(=O)OC)c2)cc1Cl [Compound E-6, methyl (Z)-2-[5-(4-chloro-3-propyl-pyrazol-1-yl)-2-methyl-phenoxy]-3-methoxy-prop-2-enoate]	≥ 80	≥ 80	≥ 80	≥ 80	≥ 80	≥ 80	≥ 80	≥ 80	≥ 80	≥ 80	–	–	–	–
CO/C=C(\Oc1cc(-n2ccc(CC#N)n2)ccc1C)C(=O)OC [Compound E-33, methyl (Z)-2-[5-[3-(cyanomethyl)pyrazol-1-yl]-2-methyl-phenoxy]-3-methoxy-prop-2-enoate]	≥ 80	–	≥ 80	≥ 80	≥ 80	–	≥ 80	–	≥ 80	≥ 80	120 to 123	–	–	–
CO/C=C(\Oc1cc(-n2cc(COC)cn2)ccc1C)C(=O)OC [Compound E-51, methyl (Z)-3-methoxy-2-[5-[4-(methoxymethyl)pyrazol-1-yl]-2-methyl-phenoxy]prop-2-enoate]	≥ 80	≥ 80	≥ 80	≥ 80	≥ 80	–	≥ 80	–	≥ 80	≥ 80	–	≥ 80	≥ 80	≥ 50
CO/C=C(\Oc1cc(-n2ccc(SC(F)(F)F)n2)ccc1C)C(=O)OC [Compound E-61, methyl (Z)-3-methoxy-2-[2-methyl-5-[3-(trifluoromethylsulfanyl)pyrazol-1-yl]phenoxy]prop-2-enoate]	≥ 80	≥ 80	≥ 80	≥ 80	≥ 80	–	≥ 80	≥ 80	≥ 80	≥ 80	137 to 139	–	≥ 80	≥ 50
CO/C=C(\Oc1cc(-n2ccc(C(F)F)n2)ccc1C)C(=O)OC [Compound E-96, methyl (Z)-2-[5-[3-(difluoromethyl)pyrazol-1-yl]-2-methyl-phenoxy]-3-methoxy-prop-2-enoate]	≥ 80	–	≥ 80	≥ 80	≥ 80	≥ 80	≥ 80	≥ 80	≥ 80	≥ 80	–	≥ 80	≥ 80	–
CO/C=C(\Oc1cc(-n2ccc(Cl)n2)ccc1C)C(=O)OC [Compound E-100, methyl (Z)-2-[5-(3-chloropyrazol-1-yl)-2-methyl-phenoxy]-3-methoxy-prop-2-enoate]	≥ 80	≥ 80	≥ 80	≥ 80	≥ 80	≥ 80	≥ 80	≥ 80	≥ 80	≥ 80	150 to 152	–	≥ 80	–
